Target: PIK3CA (human) (UniProt P42336)
Test: Assessment of PIK3CA Kinase Activity

Chain of PIK3CA (human) (P42336 whole entry, looked up): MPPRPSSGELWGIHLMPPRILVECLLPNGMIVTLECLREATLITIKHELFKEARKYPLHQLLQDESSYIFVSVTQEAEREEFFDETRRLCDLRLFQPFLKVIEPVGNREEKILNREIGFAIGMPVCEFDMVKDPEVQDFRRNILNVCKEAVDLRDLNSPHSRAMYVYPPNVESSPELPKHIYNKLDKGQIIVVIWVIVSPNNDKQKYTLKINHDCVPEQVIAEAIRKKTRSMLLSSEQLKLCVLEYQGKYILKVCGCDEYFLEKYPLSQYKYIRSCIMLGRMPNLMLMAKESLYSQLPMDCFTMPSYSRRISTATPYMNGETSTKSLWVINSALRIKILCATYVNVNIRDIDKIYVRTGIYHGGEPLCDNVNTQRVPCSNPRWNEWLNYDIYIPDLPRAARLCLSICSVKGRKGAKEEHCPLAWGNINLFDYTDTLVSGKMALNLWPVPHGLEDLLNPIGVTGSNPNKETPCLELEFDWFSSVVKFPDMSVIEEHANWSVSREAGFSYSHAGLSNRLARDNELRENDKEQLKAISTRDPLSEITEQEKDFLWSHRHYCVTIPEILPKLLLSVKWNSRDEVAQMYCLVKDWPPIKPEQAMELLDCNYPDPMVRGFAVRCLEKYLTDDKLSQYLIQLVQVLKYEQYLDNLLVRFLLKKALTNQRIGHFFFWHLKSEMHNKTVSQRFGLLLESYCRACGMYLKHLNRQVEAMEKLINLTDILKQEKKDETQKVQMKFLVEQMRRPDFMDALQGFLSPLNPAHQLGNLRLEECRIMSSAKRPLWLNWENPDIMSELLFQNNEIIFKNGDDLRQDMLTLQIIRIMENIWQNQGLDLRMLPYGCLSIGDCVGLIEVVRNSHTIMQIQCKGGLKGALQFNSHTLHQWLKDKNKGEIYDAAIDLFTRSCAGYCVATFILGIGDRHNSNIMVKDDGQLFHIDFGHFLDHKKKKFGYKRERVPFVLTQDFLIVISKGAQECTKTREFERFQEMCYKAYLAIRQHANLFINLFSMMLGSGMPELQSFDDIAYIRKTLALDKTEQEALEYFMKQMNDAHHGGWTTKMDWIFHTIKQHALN

Structure (SMILES) | IC50 [nM]
CN1CCc2c(nc(-c3ccc(NC(=O)Nc4ccncc4)cc3)nc2N2C3CCC2COC3)C1 | 2770
CCN1CCc2c(nc(-c3ccc(NC(=O)Nc4ccc(C(F)(F)F)cc4)cc3)nc2N2C3CCC2COC3)C1 | 3010
CCN1CCc2c(nc(-c3ccc(NC(=O)Nc4ccc(N5CCN(C)CC5)cc4)cc3)nc2N2C3CCC2COC3)C1 | 1920
CCN1CCc2c(nc(-c3ccc(NC(=O)NCCF)cc3)nc2N2C3CCC2COC3)C1 | 5780
CCN1CCc2c(nc(-c3ccc(NC(=O)Nc4ccc(C(=O)OC)cc4)cc3)nc2N2C3CCC2COC3)C1 | 1280
O=C(Nc1ccncc1)Nc1ccc(-c2nc3c(c(N4C5CCC4COC5)n2)CC[N+](CCF)(CCF)C3)cc1 | 1870
CCN1CCc2c(nc(-c3ccc(NC(=O)Nc4ccc(C#N)cc4)cc3)nc2N2C3CCC2COC3)C1 | 1650
CCN1CCc2c(nc(-c3ccc(NC(=O)Nc4ccc(CN5CCN(C)CC5)cc4)cc3)nc2N2C3CCC2COC3)C1 | 1280
CC(C)N1CCc2c(nc(-c3ccc(NC(=O)Nc4ccncc4)cc3)nc2N2CC3CCC(C2)O3)C1 | 2030
CC(C)N1CCc2c(nc(-c3ccc(NC(=O)Nc4ccncc4)cc3)nc2N2C3CCC2COC3)C1 | 2470
CN1CCN(c2ccc(NC(=O)Nc3ccc(-c4nc5c(c(N6C7CCC6COC7)n4)CCN(CC(F)(F)F)C5)cc3)cc2)CC1 | 1340
CCN1CCc2c(nc(-c3ccc(NC(=O)NC4CC4)cc3)nc2N2C3CCC2COC3)C1 | 4850
O=C(Nc1ccncc1)Nc1ccc(-c2nc3c(c(N4C5CCC4COC5)n2)CCN(CC(F)(F)F)C3)cc1 | 1710
CCN1CCc2c(nc(-c3ccc(NC(=O)Nc4ccc(C(=O)O)cc4)cc3)nc2N2C3CCC2COC3)C1 | 4130

Further lines, results first:

IC50 [nM] | Structure (SMILES)
1220 | CCN1CCc2c(nc(-c3ccc(NC(=O)Nc4ccc(OCCN(C)C)cc4)cc3)nc2N2C3CCC2COC3)C1
1070 | CCN1CCc2c(nc(-c3ccc(NC(=O)Nc4ccc(N5CCC(N(C)C)CC5)cc4)cc3)nc2N2C3CCC2COC3)C1
1010 | CCN1CCc2c(nc(-c3ccc(NC(=O)Nc4ccc(C(N)=O)cc4)cc3)nc2N2C3CCC2COC3)C1
917 | CCN1CCc2c(nc(-c3ccc(NC(=O)Nc4ccccc4)cc3)nc2N2C3CCC2COC3)C1
884 | CCN1CCc2c(nc(-c3ccc(NC(=O)Nc4ccc(CN(C)C)cc4)cc3)nc2N2C3CCC2COC3)C1
861 | CCN1CCc2c(nc(-c3ccc(NC(=O)Nc4ccc(C(=O)NC)cc4)cc3)nc2N2C3CCC2COC3)C1
807 | CN(C)CC(=O)N1CCc2c(nc(-c3ccc(NC(=O)Nc4ccncc4)cc3)nc2N2C3CCC2COC3)C1
737 | CCN1CCc2c(nc(-c3ccc(NC(=O)Nc4ccc(CN5CCCC5)cc4)cc3)nc2N2C3CCC2COC3)C1
554 | CCN1CCc2c(nc(-c3ccc(NC(=O)Nc4ccc(C(=O)N(C)C)cc4)cc3)nc2N2C3CCC2COC3)C1
528 | CCN1CCc2c(nc(-c3ccc(NC(=O)Nc4ccc(C(=O)NC(C)C)cc4)cc3)nc2N2C3CCC2COC3)C1
459 | CC(C)(C)OC(=O)N1CCc2c(nc(-c3ccc(NC(=O)Nc4ccncc4)cc3)nc2N2CC3CCC(C2)O3)C1
377 | COC(=O)N1CCc2c(nc(-c3ccc(NC(=O)Nc4ccncc4)cc3)nc2N2C3CCC2COC3)C1
330 | O=C(Nc1ccncc1)Nc1ccc(-c2nc3c(c(N4CC5CCC(C4)O5)n2)CCN(CCF)C3)cc1
220 | CCN1CCc2c(nc(-c3ccc(NC(=O)Nc4ccc(C(=O)N5CCCC5)cc4)cc3)nc2N2C3CCC2COC3)C1
211 | CCN1CCc2c(nc(-c3ccc(NC(=O)Nc4ccc(C(=O)N5CCN(C)CC5)cc4)cc3)nc2N2C3CCC2COC3)C1
153 | CCN1CCc2c(nc(-c3ccc(NC(=O)Nc4ccncc4)cc3)nc2N2CC3CCC(C2)O3)C1
101 | COCCN1CCc2c(nc(-c3ccc(NC(=O)Nc4ccncc4)cc3)nc2N2CC3CCC(C2)O3)C1

Target: PIK3CG (human) (UniProt P48736)
Sequence (P48736 whole entry, looked up): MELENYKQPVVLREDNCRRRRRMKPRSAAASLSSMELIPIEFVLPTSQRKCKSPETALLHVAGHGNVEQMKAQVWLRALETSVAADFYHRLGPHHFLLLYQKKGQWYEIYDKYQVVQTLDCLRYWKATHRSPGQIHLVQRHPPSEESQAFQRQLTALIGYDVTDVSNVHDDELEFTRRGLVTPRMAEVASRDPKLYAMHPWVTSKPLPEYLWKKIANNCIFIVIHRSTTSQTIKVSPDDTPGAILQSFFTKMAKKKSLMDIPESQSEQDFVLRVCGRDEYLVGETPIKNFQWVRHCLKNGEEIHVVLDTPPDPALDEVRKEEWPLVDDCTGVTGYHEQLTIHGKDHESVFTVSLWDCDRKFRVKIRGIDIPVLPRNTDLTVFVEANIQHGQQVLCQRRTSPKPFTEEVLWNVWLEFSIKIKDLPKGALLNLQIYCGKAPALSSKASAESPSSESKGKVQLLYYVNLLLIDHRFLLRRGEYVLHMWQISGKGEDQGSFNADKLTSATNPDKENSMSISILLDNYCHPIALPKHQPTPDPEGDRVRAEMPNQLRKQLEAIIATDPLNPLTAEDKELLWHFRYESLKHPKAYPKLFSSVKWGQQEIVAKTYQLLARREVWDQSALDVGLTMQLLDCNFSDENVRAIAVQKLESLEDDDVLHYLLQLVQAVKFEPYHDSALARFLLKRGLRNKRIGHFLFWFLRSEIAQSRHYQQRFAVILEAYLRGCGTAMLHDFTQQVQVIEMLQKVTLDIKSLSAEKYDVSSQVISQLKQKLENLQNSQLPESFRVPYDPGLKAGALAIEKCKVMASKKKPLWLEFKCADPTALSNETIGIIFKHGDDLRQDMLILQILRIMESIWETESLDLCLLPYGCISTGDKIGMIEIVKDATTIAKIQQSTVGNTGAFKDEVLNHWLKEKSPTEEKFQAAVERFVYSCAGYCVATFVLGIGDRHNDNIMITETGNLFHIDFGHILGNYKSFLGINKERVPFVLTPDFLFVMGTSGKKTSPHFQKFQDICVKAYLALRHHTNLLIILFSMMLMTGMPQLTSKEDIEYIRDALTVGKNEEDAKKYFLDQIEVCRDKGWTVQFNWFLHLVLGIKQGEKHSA
Test: Assessment of PIK3CG Kinase Activity

Structure (SMILES) | IC50 [nM]
CNC(=O)Nc1ccc(-c2nc3c(c(N4CC5CCC(C4)O5)n2)CCN(S(=O)(=O)c2ccc(Cl)cc2)C3)cc1 | 3100
CCCCC(CC)C(=O)N1CCc2c(nc(-c3ccc(NC(=O)NC)cc3)nc2N2CC3CCC(C2)O3)C1 (stereo not drawn) | 270

— the Kinase Knowledgebase extract (Sharma et al. 2016)
